Key:
[1] = biological target: T1, rat P2X7 receptor (rP2X7) (Rattus norvegicus, UniProt Q64663); test: cryo-EM structure; assay type: cell-based
T1 sequence (Q64663 1-595): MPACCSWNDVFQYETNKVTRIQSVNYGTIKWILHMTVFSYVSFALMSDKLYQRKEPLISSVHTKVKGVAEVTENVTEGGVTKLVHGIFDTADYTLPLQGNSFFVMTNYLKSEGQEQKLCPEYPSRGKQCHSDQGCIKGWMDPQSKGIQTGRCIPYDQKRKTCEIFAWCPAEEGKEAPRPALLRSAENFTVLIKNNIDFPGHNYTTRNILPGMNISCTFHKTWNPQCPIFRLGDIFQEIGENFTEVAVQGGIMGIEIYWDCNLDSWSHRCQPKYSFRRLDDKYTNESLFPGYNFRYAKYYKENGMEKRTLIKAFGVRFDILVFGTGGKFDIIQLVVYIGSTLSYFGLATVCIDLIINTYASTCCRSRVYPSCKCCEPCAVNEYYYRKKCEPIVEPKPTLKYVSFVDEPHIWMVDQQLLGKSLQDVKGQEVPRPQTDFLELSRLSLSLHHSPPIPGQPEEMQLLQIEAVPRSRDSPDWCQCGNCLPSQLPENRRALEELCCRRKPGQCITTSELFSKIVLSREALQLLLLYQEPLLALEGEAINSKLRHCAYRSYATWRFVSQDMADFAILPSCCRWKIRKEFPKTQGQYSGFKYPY

[2] = biological target: rat P2X7 receptor, rP2X7-ΔBallast (Rattus norvegicus, UniProt Q64663)
[3] = biological target: T1, rat P2X7 receptor (rP2X7); test: SPA competition with 3H-GDP; assay type: binding
[4] = biological target: T1, rat P2X7 receptor (rP2X7); test: cryo-EM structure; assay type: binding

| Compound | Ki [3] | further results |
| --- | --- | --- |
| Nc1ncnc2c1ncn2[C@@H]1O[C@H](COP(=O)(O)OP(=O)(O)OP(=O)(O)O)[C@@H](O)[C@H]1O [ATP] | – | EC50 [1]: 42 ± 3 µM; EC50 [2]: 52 ± 11 µM |
| Nc1ccn([C@@H]2O[C@H](COP(=O)(O)OP(=O)(O)OP(=O)(O)O)[C@@H](O)[C@H]2O)c(=O)n1 [CTP] | 130 ± 3 µM | – |
| Nc1nc2c(ncn2[C@@H]2O[C@H](COP(=O)(O)OP(=O)(O)O)[C@@H](O)[C@H]2O)c(=O)[nH]1 [GDP] | – | Kd [4]: 0.04 ± 0.01 µM |
| Nc1nc2c(ncn2[C@@H]2O[C@H](COP(=O)(O)OP(=O)(O)OP(O)(O)=S)[C@@H](O)[C@H]2O)c(=O)[nH]1 [GTP-γ-S] | 0.1 ± 0.01 µM | – |
| Nc1nc2c(ncn2[C@@H]2O[C@H](COP(=O)(O)OP(=O)(O)OP(=O)(O)O)[C@@H](O)[C@H]2O)c(=O)[nH]1 [GTP] | 0.15 ± 0.015 µM | – |
| O=c1ccn([C@@H]2O[C@H](COP(=O)(O)OP(=O)(O)OP(=O)(O)O)[C@@H](O)[C@H]2O)c(=O)[nH]1 [UTP] | 60 ± 10 µM | – |

Source: article PMC7053488 (Cell, 2019)
